Test results taken from article PMC12022980, “Rational Design of PROTAC Linkers Featuring Ferrocene as a Molecular Hinge to Enable Dynamic Conformational Changes” (Journal of the American Chemical Society, 2025).
Where two headings read alike, the source gives them in different places.

What was measured:
[1] = target: T1, CRBN (Homo sapiens, UniProt Q96SW2); design: method as in PMID 30826187; settings: cited from earlier work
T1 construct: endogenous in cells; host or cells: HEK293 (ATCC)

[2] = target: T2, pVHL30 (Homo sapiens, UniProt P40337); design: method as in PMID 29018234; settings: cited from earlier work
T2 construct: endogenous in cells; host or cells: HEK293 (ATCC)

[3] = target: T2, pVHL30; assay: Western blot VHL degradation in HEK293 cells; format: cell-based
Experimental: To further elucidate the mode of action of FerroTAC AS2, we explored its dependency on ubiquitination and proteasome activity.
A) Representative immunoblots of VHL protein levels after treatment of
HEK293 cells. Cells were treated with 0.1% EtOH, 0.1 μM or 1 μM of the indicated compounds for 4 and 24 h.
Controls were included at 1 μM for 24 h. Mean values of two biologically independent experiments.
Representative time-course immunoblots of VHL protein levels after treatment of HEK293 cells treated with
Cells were treated with 0.1% EtOH and controls at 1 μM. Mean values of two biologically
independent experiments. Apparent half-life values (t 1/2) were estimated by fitting band intensity against time
using a single-phase exponential decay model. C) Representative immunoblots of VHL protein levels in
neddylation inhibitor MLN4924 (3 μM) and VHL inhibitor VH032 (50 μM). The amount of EtOH (0.1%) and
DMSO (0.5%) is fixed in all samples. Band quantification was performed using ImageJ software and reported
(in black and black) as relative amount as ratio of each protein band relative to the lane’s loading control
(tubulin). VHL/tubulin protein ratios were normalised to the average of the controls (100%).
HEK293 and HCT116 cell lines, purchased from ATCC, were cultured in Dulbecco’s modified Eagle’s medium (DMEM, Gibco) supplemented with 10% fetal bovine serum (FBS, Gibco), L-glutamine (2 mM, Gibco) and 100 μg/mL of penicillin/streptomycin (Gibco). All cell lines were maintained in a humidified incubator at 37 °C and 5% CO2 for no more than 30 passages. Cells were routinely tested for mycoplasma contamination.
Cell Treatment for Immunoblotting
depending on the experimental setup. Cells were treated in fresh medium with the indicated compounds under indicated conditions with a final EtOH or iPrOH concentration of 0.01% (v/v) to 0.1% (v/v) depending on the experimental setup. […]
stored at −80°C. Protein concentration was determined by bicinchoninic acid (BCA) assay (Thermo Fisher […]
Quantitative Immunoblotting […]

T2 sequence (P40337 whole entry): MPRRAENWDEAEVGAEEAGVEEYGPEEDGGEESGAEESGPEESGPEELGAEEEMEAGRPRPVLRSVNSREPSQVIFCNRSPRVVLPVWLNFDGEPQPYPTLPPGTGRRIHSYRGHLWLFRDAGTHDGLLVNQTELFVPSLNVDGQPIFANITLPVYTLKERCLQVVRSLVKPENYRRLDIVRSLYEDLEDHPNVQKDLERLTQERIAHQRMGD
T1 sequence (Q96SW2 whole entry): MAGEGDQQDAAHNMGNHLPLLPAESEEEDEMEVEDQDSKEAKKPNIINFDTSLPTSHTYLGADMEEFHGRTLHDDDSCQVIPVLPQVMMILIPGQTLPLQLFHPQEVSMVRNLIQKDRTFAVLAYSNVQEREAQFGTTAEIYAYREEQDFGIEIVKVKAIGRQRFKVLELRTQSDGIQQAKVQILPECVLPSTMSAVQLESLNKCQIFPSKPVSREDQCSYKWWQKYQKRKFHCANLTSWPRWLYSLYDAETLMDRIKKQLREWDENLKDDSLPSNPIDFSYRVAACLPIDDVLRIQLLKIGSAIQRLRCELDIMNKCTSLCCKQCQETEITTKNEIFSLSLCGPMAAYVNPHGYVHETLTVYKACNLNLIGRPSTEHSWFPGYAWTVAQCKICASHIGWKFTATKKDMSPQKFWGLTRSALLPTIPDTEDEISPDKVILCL

Dmax at 1 µM ([3]; HEK293, 4 h, read-out: Dmax at 1 μM (pVHL30))	Dmax at 1 µM ([3]; HEK293, 24 h, read-out: maximal degradation (Dmax) of pVHL30)	Structure (SMILES)	DC50 [1]	t1/2 (pVHL30 degradation half-life) ([2]; 1 μM, calculated from ref 38)	DC50 ([2]; reference value, CM11 only run at 1 μM here, read-out: DC50 ± S.D (pVHL30))
–	–	Cc1ncsc1-c1ccc(CNC(=O)[C@@H]2C[C@@H](O)CN2C(=O)[C@@H](NC(=O)CCCCCOCCOCCCCCC(=O)Nc2cccc3c2C(=O)N(C2CCC(=O)NC2=O)C3=O)C(C)(C)C)cc1 (some centres unmarked) [14a]	200 nM	–	–
98%	100%	Cc1ncsc1-c1ccc(CNC(=O)[C@@H]2C[C@@H](O)CN2C(=O)[C@@H](NC(=O)COCCOCCOCCOCCOCCOCC(=O)N[C@H](C(=O)N2C[C@H](O)C[C@H]2C(=O)NCc2ccc(-c3scnc3C)cc2)C(C)(C)C)C(C)(C)C)cc1 [CM11]	–	85.1 min	< 100 nM
